{"source": "patent US10428028B2", "about": "“HDAC inhibitors” (BIOMARIN PHARMACEUTICAL INC., priority 2013, dated 2019)", "key": {"HDAC3/NcoR2": {"biological_target": "HDAC3/NcoR2 (Homo sapiens (Human), UniProt O15379)", "sequence (O15379 whole entry)": "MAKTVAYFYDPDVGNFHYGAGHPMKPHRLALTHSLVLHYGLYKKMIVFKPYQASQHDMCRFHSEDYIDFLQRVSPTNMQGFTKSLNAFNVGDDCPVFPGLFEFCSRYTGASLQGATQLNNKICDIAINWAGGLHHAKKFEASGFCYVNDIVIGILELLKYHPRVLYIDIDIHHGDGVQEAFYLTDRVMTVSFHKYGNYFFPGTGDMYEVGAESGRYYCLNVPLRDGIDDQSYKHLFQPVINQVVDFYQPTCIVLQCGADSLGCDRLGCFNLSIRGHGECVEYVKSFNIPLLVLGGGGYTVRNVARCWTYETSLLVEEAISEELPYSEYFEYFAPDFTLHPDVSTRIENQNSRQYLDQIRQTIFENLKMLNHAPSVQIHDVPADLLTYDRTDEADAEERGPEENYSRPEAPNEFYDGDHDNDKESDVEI", "sequence (Q9Y618 395-489 partner)": "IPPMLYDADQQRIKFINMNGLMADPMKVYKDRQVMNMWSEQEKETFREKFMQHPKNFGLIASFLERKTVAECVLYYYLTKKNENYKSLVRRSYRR", "test": "HDAC enzyme inhibition assay (Fluor-de-Lys), HDAC3/NcoR2", "type": "biochemical", "conditions": "HDAC3/NcoR2, 2 hours pre-incubation", "description": "The HDAC activity inhibition assay was performed as follows to determine the ability of a test compound to inhibit HDAC enzymatic activity. Serial dilutions of HDAC inhibitors were prepared in HDAC assay buffer (25 mM Tris/HCl, pH 8.0, 137 mM NaCl, 2.7 mM KCl, 1 mM MgCl2, pH 8) in 96-well assay plates (Fisher scientific, #07-200-309) and were pre-incubated for 2 hours at room temperature in the presence of 125 μg/ml BSA and purified HDAC1 (BPS Bioscience, San Diego, Calif., #50051), HDAC2 (BPS Bioscience, #50053), or HDAC3/NcoR2 (BPS Bioscience, #50003) at concentrations of 1.25, 1.32, and 0.167 μg/mL, respectively. Following pre-incubation, Fluor-de-Lys™ substrate (Enzo Life Sciences, Plymouth Meeting, Pa., BML-KI104-0050) was added to a final concentration of 10 μM and plates were further incubated for 30 minutes at room temperature. The enzymatic reaction was stopped by addition of Trichostatin A (Sigma-Aldrich, St Louis, Mo., #T8552, final concentration: 100 nM) and trypsin (MP Biomedicals, Solon, Ohio, #02101179) was added to reach a final concentration of 100 μg/mL. After a 15 minute incubation at room temperature, fluorescence was recorded using a Spectramax M2 fluorometer (Molecular Devices, Sunnyvale, Calif.) with excitation at 365 nm and emission at 460 nm. IC50 values were calculated by using a sigmoidal dose-response (variable slope) equation in GraphPad Prism® 5 for Windows (GraphPad Software, La Jolla, Calif.). Results for selected compounds in the HDAC activity inhibition assay are presented in Table 5 (IC50 ranges: IA>20 μM, A<1 μM, 1<B<5 μM, 5<C<10 μM, 10<D<20 μM, ND: not determined)."}, "[1]": {"test": "Hepatocyte stability and metabolism (parent remaining, acid and OPD formation)", "type": "in vitro ADME", "conditions": "human hepatocytes; for % left 6H Hum hep: 5 μM; for OPD: OPD formation by LC-MS/MS after phenylglyoxal derivatisation", "description": "The inventors have found, however, that formula (I) compound metabolites are substantially free of OPD when formula (I) compounds are subjected to conditions intended to mimic in vivo metabolism pathways. As used herein, the term “substantially free of OPD” means that OPD was not detected by LC-MS/MS after (i) incubating a formula (I) compound with human, monkey, dog and rat hepatocytes and (ii) treating the metabolite milieu with an acidic solution of phenylglyoxal in an organic solvent (this addition leads to quantitative formation of 2-phenylquinoxaline, which can be easily quantified with a low lower limit of quantitation (LLOQ)). See the Examples section.\nTo assess the stability and metabolism of RGFP compounds and to quantify the metabolites in hepatocytes. This assay was designed to evaluate the metabolism of RGFP compounds, following their incubation with human, monkey, dog and rat hepatocytes by monitoring either parent drug disappearance or metabolite appearance using LC-MS/MS. The results are shown in Table 5 ((% Left in Hep: IA<10%, 50%<A, 50%>B>30%, 30%>C>10%, ND: not determined).\nProcedure: Turn on the water-bath heater to 37° C. Take out the KHB buffer and make sure it is at room temp before use. Prepare 2.5 mM concentration of RGFP compound in DMSO stock. Add 10 μL of above DMSO stock to 2490 μL KHB buffer; final concentration of RGFP compound will be 10 μM. Pre-warm 45 ml InVitro HT Medium to 37° C. in a sterile 50 ml conical tube. Add 1.0 mL Torpedo Antibiotic Mix per 45 mL InVitro HT medium. Transfer 13 mL of warm HT medium with Antibiotic Mix into a 15 mL conical tube. Carefully remove the hepatocyte vials from liquid nitrogen (liquid phase). Immediately immerse the vial into a 37° C. water bath. Shake gently until the ice melts entirely. […] Immediately empty contents of the vial into 13 ml of pre-warmed InVitro HT Medium with antibiotics. Rinse the vial with the HT media just transferred the hepatocytes to, in order to ensure complete transfer. Centrifuge the cell suspension at 600 RPM for 5 minutes at room temperature. […] Add 1.0 ml of KHB (at room temperature) buffer to the tube of hepatocyte pellet. Loosen the cell pellet by gently swirling the centrifuge tube. Transfer 100 μL of above solution to a different tube and add 900 μL of KHB buffer to count the cells. Determine the total cell count and the number of viable cells using the Trypan Blue exclusion method. Once the cell count is obtained, multiply the number by 10 (attributing to the dilution factor). Add required volume of KHB buffer to the tube containing hepatocytes such that the final count will be 2 million cells/mL. Dispense 50 μL of 2 million cells/ml to a 96 well plate and then add 50 μl of DMSO stock to respective wells (such that, the concentration of RGFP compounds is 5 μM and number of cells are 100000 in each well). Place the plates on a shaker in a 37° C. incubator with 5% CO2. Separate plates for each time point are advisable (Time points: 0 h, 1 h, 2 h, and 6 h). After each time point, add 100 μL of quenching solution. Quenching solution is an acetonitrile solution containing RGFP531 (10 μM) internal standard, 0.1% formic acid and phenylglyoxol (400 μM). The formic acid and phenylglyoxal is used for the identification and quantification of OPD as mentioned above. Pipette up and down a few times to ensure a complete stop of reaction. Transfer all the solution into a 1.5 ml tube, vortex thoroughly, and centrifuge at 14000 RPM at 4° C. for 5 minutes to precipitate cell debris. Transfer the 150 μL of supernatant to vials for analysis on LC-MS/MS.\nLC-MS/MS parameters for RGFP compounds and metabolites including OPD: LC-MS/MS Parameters for API 2000 QTrap: System: HPLC 1100; Column: Gemini C18, 5 μM 4.6×50 mm; Column Temp: Ambient; MS: API 2000 QTrap (MI mode); Mobile Phase A: HPLC water with 0.05% Formic Acid; Mobile Phase B: Acetonitrile with 0.05% Formic Acid."}}, "note": "pIC50: −log10 of the molar value."}
{"smiles": "Nc1ccccc1NC(=O)c1ccc2c(cnn2Cc2cccnc2)c1", "note": "[Compound A1]", "values": [{"measurement": "pIC50", "setting": "HDAC3/NcoR2", "result": "> 6.00"}, {"measurement": "% left 6H Hum hep", "setting": "[1]", "result": "A (50%<A)"}, {"measurement": "OPD", "setting": "[1]", "result": "No OPD"}]}
{"smiles": "Nc1ccccc1NC(=O)c1ccc2c(cnn2Cc2ccccc2)c1", "note": "[Compound A2]", "values": [{"measurement": "pIC50", "setting": "HDAC3/NcoR2", "result": "> 6.00"}, {"measurement": "% left 6H Hum hep", "setting": "[1]", "result": "B (50%>B>30%)"}, {"measurement": "OPD", "setting": "[1]", "result": "No OPD"}]}
{"smiles": "Cn1cc(Cn2ncc3cc(C(=O)Nc4ccccc4N)ccc32)cn1", "note": "[Compound A3]", "values": [{"measurement": "pIC50", "setting": "HDAC3/NcoR2", "result": "> 6.00"}, {"measurement": "% left 6H Hum hep", "setting": "[1]", "result": "A (50%<A)"}, {"measurement": "OPD", "setting": "[1]", "result": "No OPD"}]}
{"smiles": "Nc1ccccc1NC(=O)c1ccc2c(cnn2Cc2cncc(F)c2)c1", "note": "[Compound A4, N-(2-aminophenyl)-1-((5-fluoropyridin-3-yl)methyl)-1H-indazole-5-carboxamide]", "values": [{"measurement": "pIC50", "setting": "HDAC3/NcoR2", "result": "> 6.00"}, {"measurement": "% left 6H Hum hep", "setting": "[1]", "result": "A (50%<A)"}, {"measurement": "OPD", "setting": "[1]", "result": "No OPD"}]}
{"smiles": "Cc1ccc(Cn2ncc3cc(C(=O)Nc4ccccc4N)ccc32)c(C)n1", "note": "[Compound A5]", "values": [{"measurement": "pIC50", "setting": "HDAC3/NcoR2", "result": "> 6.00"}, {"measurement": "% left 6H Hum hep", "setting": "[1]", "result": "B (50%>B>30%)"}, {"measurement": "OPD", "setting": "[1]", "result": "No OPD"}]}
{"smiles": "Nc1cc(F)ccc1NC(=O)c1ccc2c(cnn2Cc2cccnc2)c1", "note": "[Compound A6]", "values": [{"measurement": "pIC50", "setting": "HDAC3/NcoR2", "result": "> 6.00"}, {"measurement": "% left 6H Hum hep", "setting": "[1]", "result": "B (50%>B>30%)"}, {"measurement": "OPD", "setting": "[1]", "result": "No OPD"}]}
{"smiles": "Nc1cc(F)ccc1NC(=O)c1ccc2c(cnn2Cc2cncc(F)c2)c1", "note": "[Compound A7]", "values": [{"measurement": "pIC50", "setting": "HDAC3/NcoR2", "result": "> 6.00"}, {"measurement": "% left 6H Hum hep", "setting": "[1]", "result": "B (50%>B>30%)"}, {"measurement": "OPD", "setting": "[1]", "result": "No OPD"}]}
{"smiles": "Cc1ccc(Cn2ncc3cc(C(=O)Nc4ccc(F)cc4N)ccc32)c(C)n1", "note": "[Compound A8]", "values": [{"measurement": "pIC50", "setting": "HDAC3/NcoR2", "result": "> 6.00"}, {"measurement": "% left 6H Hum hep", "setting": "[1]", "result": "A (50%<A)"}, {"measurement": "OPD", "setting": "[1]", "result": "No OPD"}]}
{"smiles": "Nc1ccccc1NC(=O)c1ccc2c(cnn2Cc2ccc(F)c(F)c2)c1", "note": "[Compound A9]", "values": [{"measurement": "pIC50", "setting": "HDAC3/NcoR2", "result": "> 6.00"}, {"measurement": "% left 6H Hum hep", "setting": "[1]", "result": "B (50%>B>30%)"}, {"measurement": "OPD", "setting": "[1]", "result": "No OPD"}]}
{"smiles": "Nc1cc(F)ccc1NC(=O)c1ccc2c(cnn2CC2CC2)c1", "note": "[Compound A12]", "values": [{"measurement": "pIC50", "setting": "HDAC3/NcoR2", "result": "> 6.00"}, {"measurement": "% left 6H Hum hep", "setting": "[1]", "result": "C (30%>C>10%)"}, {"measurement": "OPD", "setting": "[1]", "result": "No OPD"}]}
{"smiles": "Nc1ccccc1NC(=O)c1ccc2nn(Cc3cccnc3)cc2c1", "note": "[Compound A13]", "values": [{"measurement": "pIC50", "setting": "HDAC3/NcoR2", "result": "> 6.00"}, {"measurement": "% left 6H Hum hep", "setting": "[1]", "result": "A (50%<A)"}, {"measurement": "OPD", "setting": "[1]", "result": "No OPD"}]}
{"smiles": "Nc1ccccc1NC(=O)c1ccc2nn(Cc3cncc(F)c3)cc2c1", "note": "[Compound A14, N-(2-aminophenyl)-2-((5-fluoropyridin-3-yl)methyl)-2H-indazole-5-carboxamide]", "values": [{"measurement": "pIC50", "setting": "HDAC3/NcoR2", "result": "> 6.00"}, {"measurement": "% left 6H Hum hep", "setting": "[1]", "result": "A (50%<A)"}, {"measurement": "OPD", "setting": "[1]", "result": "No OPD"}]}
{"smiles": "Cc1ccc(Cn2cc3cc(C(=O)Nc4ccccc4N)ccc3n2)c(C)n1", "note": "[Compound A15]", "values": [{"measurement": "pIC50", "setting": "HDAC3/NcoR2", "result": "> 6.00"}, {"measurement": "% left 6H Hum hep", "setting": "[1]", "result": "A (50%<A)"}, {"measurement": "OPD", "setting": "[1]", "result": "No OPD"}]}
